Patent US20060194800A1, “Pteridine derivatives as nitric oxide synthase activators” (University of Strathclyde, priority 2005, published 2006)

Assays:
iNOS = target: T1, iNOS (Mus musculus, UniProt P29477); assay: Macrophage assay (iNOS), macrophages depleted of tetrahydrobiopterin by DAHP; assay type: cell-based; conditions: 72 h; tested at 1 microM in macrophages; P = promotes NOS activity; read-out: iNOS effect *H155
T1 construct: stimulated macrophages that produce iNOS; endogenous in cells; host or cells: primary mouse macrophages (from femur), LPS-stimulated, DAHP-treated
T1 sequence (P29477 whole entry): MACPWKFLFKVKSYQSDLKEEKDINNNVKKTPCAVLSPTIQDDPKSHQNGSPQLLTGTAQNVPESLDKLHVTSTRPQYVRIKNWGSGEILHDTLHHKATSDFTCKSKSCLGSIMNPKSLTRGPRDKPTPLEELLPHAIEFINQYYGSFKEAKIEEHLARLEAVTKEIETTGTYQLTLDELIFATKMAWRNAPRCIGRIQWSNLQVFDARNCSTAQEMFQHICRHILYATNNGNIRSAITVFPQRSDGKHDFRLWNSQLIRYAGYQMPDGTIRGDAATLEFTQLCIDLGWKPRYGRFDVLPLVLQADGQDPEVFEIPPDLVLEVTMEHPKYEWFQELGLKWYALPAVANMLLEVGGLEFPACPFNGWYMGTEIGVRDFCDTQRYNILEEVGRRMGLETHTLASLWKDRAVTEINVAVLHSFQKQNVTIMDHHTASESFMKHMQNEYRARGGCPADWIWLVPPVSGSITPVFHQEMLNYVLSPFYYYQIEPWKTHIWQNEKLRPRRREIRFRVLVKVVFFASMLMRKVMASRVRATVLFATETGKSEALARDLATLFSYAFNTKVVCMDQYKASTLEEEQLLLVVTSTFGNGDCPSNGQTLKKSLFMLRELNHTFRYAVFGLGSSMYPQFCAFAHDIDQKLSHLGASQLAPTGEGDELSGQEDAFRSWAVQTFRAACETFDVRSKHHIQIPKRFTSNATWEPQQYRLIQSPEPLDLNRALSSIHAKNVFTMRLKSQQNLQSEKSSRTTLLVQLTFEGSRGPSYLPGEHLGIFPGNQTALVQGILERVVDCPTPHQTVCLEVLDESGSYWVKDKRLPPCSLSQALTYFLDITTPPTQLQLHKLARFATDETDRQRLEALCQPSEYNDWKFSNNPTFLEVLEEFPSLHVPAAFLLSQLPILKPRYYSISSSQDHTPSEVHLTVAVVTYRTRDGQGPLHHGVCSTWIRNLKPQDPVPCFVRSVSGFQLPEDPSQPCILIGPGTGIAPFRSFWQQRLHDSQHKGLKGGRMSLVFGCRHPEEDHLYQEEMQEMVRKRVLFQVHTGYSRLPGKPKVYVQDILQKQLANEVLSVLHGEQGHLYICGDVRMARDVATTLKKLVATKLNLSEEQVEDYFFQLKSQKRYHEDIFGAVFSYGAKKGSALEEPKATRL

rat pulmonary artery = assay: Rat pulmonary artery ring relaxation (endogenous tetrahydrobiopterin present); conditions: rat pulmonary artery, normal or DAHP-treated
Protocol: Rings (5 mm long) of rat pulmonary artery and aorta, were supported on a pair of intraluminal wires at 1 gm tension for one hour and then contracted with their EC50 phenylephrine concentration, which for pulmonary artery was 3.6×10^−8 M (derived from preliminary experiments) and for aorta was 11.8×10^−8 M (from the previously published literature). The rings were then relaxed with carbachol (10 μM). If the relaxation to carbachol was >75%, then the tissues were used to generate dose responses by addition of tetrahydrobiopterin (BH4) or the analogues. Stock BH4 was stored at −20° C. and the dilutions were prepared using saline just before adding the drug into the bath. Solutions of analogues were stored at 4° C. Cumulatively increasing concentrations of the analogues were added to the bath and the extent of relaxation was measured when it had stabilised. Another ring from the same rat was treated in parallel with the solvent for the analogue. The solvent used was NH4OH. The results are shown graphically in FIGS. 1 and 2.

| SMILES | activation at 1 µM (iNOS) | concentrations of tetrahydrobiopterin causing contraction (rat pulmonary artery) |
| --- | --- | --- |
| CC1(C)Nc2nc(N)[nH]c(=O)c2N=C1Cc1ccccc1 [wsg1012, 2-Amino-6-benzyl-7,7-dimethyl-7,8-dihydro-3H-pteridin-4-one] | 20 to 50% | – |
| CC1=Nc2c(nc(N)[nH]c2=O)NC1C (stereo not shown) [wsg1011, 2-Amino-6,7-dimethyl-4-oxo-3,4,7,8-tetrahydro-pteridin-8-ium Cl-] | 20 to 50% | – |
| Cc1nc2nc(N)[nH]c(=O)c2nc1C [wsg1009, 2-Amino-6,7-dimethyl-3H-pteridin-4-one] | 20 to 50% | – |
| CC12CCCCC1=Nc1c(nc(N)[nH]c1=O)N2 (stereo not shown) [wsg1007, 2-Amino-9a-methyl-6,7,8,9,9a,10-hexahydro-3H-benzo[g]pteridin-4-one] | 20 to 50% | – |
| CCC1=Nc2c(nc(N)[nH]c2=O)NC1(C)C [wsg1006, 2-Amino-6-ethyl-7,7-dimethyl-7,8-dihydro-3H-pteridin-4-one] | 20 to 50% | – |
| Nc1nc2ncc(C(=O)O)nc2c(=O)[nH]1 [wsg1005, 2-Amino-4-oxo-3,4-dihydro-pteridine-6-carboxylic acid] | 20 to 50% | – |
| CC1Nc2nc(N)[nH]c(=O)c2NC1C (stereo not shown) [wsg1010, 2-Amino-6,7-dimethyl-4-oxo-3,4,5,6,7,8-hexahydro-pteridin-5-ium Cl-] | 20 to 50% | – |
| CC12CCCC1(S(=O)(=O)O)Nc1c(nc(N)[nH]c1=O)N2 (stereo not shown) [wsg1008, 6-Amino-3a-methyl-8-oxo-1,2,3,3a,4,7,8,9-octahydro-4,5,7,9-tetraaza-cyclopenta[b]naphthalene-9a-sulfonic acid] | 20 to 50% | – |
| Nc1nc2ncc(C=O)nc2c(=O)[nH]1 [wsg1003, 2-Amino-4-oxo-3,4-dihydro-pteridine-6-carbaldehyde] | 20 to 50% | – |
| CC1(C)Nc2nc(N)[nH]c(=O)c2N=C1CO [wsg1004, 2-Amino-6-hydroxymethyl-7,7-dimethyl-7,8-dihydro-3H-pteridin-4-one] | 20 to 50% | – |
| C[C@H](O)[C@H](O)[C@H]1CNc2nc(N)[nH]c(=O)c2N1 [tetrahydrobiopterin, reference compound] | – | above 3 μM |

Now from value to compound, other results behind:

| activation at 1 µM (iNOS) | SMILES | concentrations of tetrahydrobiopterin causing contraction (rat pulmonary artery) |
| --- | --- | --- |
| < 20% | CC1=Nc2c(nc(N)[nH]c2=O)OC1(C)C [wsg1019, 2-Amino-6,7,7-trimethyl-3,7-dihydro-pyrimido[4,5-b][1,4]oxazin-4-one] | – |
| 20 to 50% | CC1(CCc2ccccc2)Nc2nc(N)[nH]c(=O)c2N=C1CO (stereo not shown) [wsg1018, 2-Amino-6-hydroxymethyl-7-methyl-7-phenethyl-7,8-dihydro-3H-pteridin-4-one] | – |
| > 50% | CC1(C)Nc2nc(N)[nH]c(=O)c2N=C1/C=C/c1ccc(Cl)cc1 [wsg1017, 2-Amino-6-[2-(4-chloro-phenyl)-vinyl]-7,7-dimethyl-7,8-dihydro-3H-pteridin-4-one] | – |
| < 20% | CC1(CCc2ccccc2)Nc2nc(N)[nH]c(=O)c2N=C1C=O (stereo not shown) [wsg1016, 2-Amino-7-methyl-4-oxo-7-phenethyl-3,4,7,8-tetrahydro-pteridine-6-carbaldehyde] | – |
| < 20% | CCC1(CC)Nc2nc(N)[nH]c(=O)c2N=C1CO [wsg1014, 2-Amino-7,7-diethyl-6-hydroxymethyl-7,8-dihydro-3H-pteridin-4-one] | – |
